# Reference: patent US4927817A, “Preventive and therapeutic agent against liver disorder” (Zeria Pharmaceutical Co., Ltd., priority 1986, dated 1990)
# “Also recorded” adds a separate entry of the source.
# Tests used:
# [1] = tested on: liver disorder caused by carbon tetrachloride; assay: prevention of experimental liver disorder in rat caused by carbon tetrachloride: serum GOT and GPT; type: in vivo, male Wistar rats; details: for GOT (serum) / GPT (serum): CCl4 0.4 ml/kg oral 1 h after last dose, blood at 24 h; for GOT (serum): CCl4 + CMC control 2115.9 ± 260.2; for GPT (serum): CCl4 + CMC control 2243.8 ± 333.0
# Protocol: (§1) Carnosine zinc salt was suspended in 0.5% sodium carboxymethyl cellulose (CMC) solution to prepare 60 mg/ml and 20 mg/ml suspensions. This was given to rats orally every day for 8 days at the rate of 0.5 ml/100 g so that the dosage was to be 300 mg/kg and 100 mg/kg, respectively. To the control group, the same volume of 0.5% CMC was given.
# (§2) To prepare the model animals with liver disorder caused by carbon tetrachloride, carbon tetrachloride mixed in olive oil to have a 10% (V/V) mixture was given orally at the rate of 4 ml/kg (0.4 ml/kg as carbon tetrachloride) one hour after the final administration of carnosine zinc salt or 0.5% CMC. The animals were anesthetized by intraperitoneal injection of pentobarbital at 24 hours after carbon tetrachloride was given, and blood was collected from carotid arteries. The blood was centrifuged at 3000 rpm for 15 minutes to fractionate serum, and GOT and GPT were determined (Reitman Frankel and Momose modification).
# For the experiment, male Wistar rats were used. With 10 rats in each group, they were divided into three groups: the group given with carbon tetrachloride (CCl4) and 0.5% CMC only (CCl4 +CMC), the group given with carbon tetrachloride and 300 mg/kg or 100 mg/kg of carnosine zinc salt (CCl4 +carnosine zinc salt) and the group given with 0.5% CMC only (CMC).
# [2] = tested on: hepatitis experimentally induced by carbon tetrachloride; assay: carnosine zinc salt given after liver disorder had actually occurred (carbon tetrachloride hepatitis); type: in vivo, model animals; details: CCl4 hepatitis
# hepatic cells = assay: histopathological examination of isolated liver (H-E staining) in rats given carbon tetrachloride; type: in vivo, male Wistar rats
# Protocol: as §1, §2
# From the isolated liver, the paraffined sections were prepared, stained by H-E staining and were examined by histopathological examination.
# For the experiment, male Wistar rats were used. […]
# [3] = acute toxicity test, oral; type: in vivo, female and male Wistar rats
# Text: In the acute toxicity test, female and male Wistar rats, each with body weight 150-200 g, were divided into the groups with 10 rats each, and 10 g/kg each of carnosine zinc salt was given orally.
# [4] = 100 mg/kg oral daily for 8 days
# [5] = 300 mg/kg oral daily for 8 days
structure (smiles),measurement,setting,value
"NCCC(=O)[N-][C@@H](Cc1c[nH]cn1)C(=O)[O-].[Zn+2] [carnosine zinc salt, L-carnosine zinc salt]",GOT (serum),[1]; [4],2167.7 ± 777.5 KU
same,GPT (serum),[1]; [4],1917.7 ± 748.6 KU
same,"GPT and GOT in blood, statistical significance","[1]; 300 mg/kg administration group, risk rate of 1%",significantly decreased at risk rate of 1%
same,GOT (serum),[1]; [5],629.7 ± 121.2 KU
same,GPT (serum),[1]; [5],427.7 ± 69.4 KU
same,increase of hepatic enzymes in blood,"[1]; given before liver disorder occurs, CCl4 hepatitis",effectively prevented
same,increase of GPT and GOT in blood,"[1]; oral, depending upon the dosage, CCl4 rats","significant decline in the increase of GPT and GOT in blood; also recorded: suppresses increase of GPT and GOT in blood, depending upon the dosage"
same,prevention of experimental liver disorder caused by carbon tetrachloride,"[1]; oral, rat",effect of carnosine zinc salt to prevent the experimental liver disorder caused by carbon tetrachloride
same,preventive effect when given after liver disorder had occurred,[2],the same preventive effect was obtained
same,necrosis of hepatic cells and fat formation,"hepatic cells; group given carnosine zinc salt, CCl4 rats",suppression of necrosis of hepatic cells and fat formation
same,degree of necrosis of hepatic cells,hepatic cells; improvement of liver disorder,reduction of the degree of necrosis of hepatic cells
same,death in acute toxicity test,"[3]; 10 g/kg oral, observation for 7 days, female and male rats",no case of death
same,acute toxicity,[3]; oral,very weak toxicity; also recorded: extremely weak
